Source: EP4596561A1, “PHOSPHORUS-CONTAINING COMPOUND, PHARMACEUTICAL COMPOSITION AND USE THEREOF” (Suzhou Genhouse Bio Co., Ltd., priority 2022, dated 2024)
Read-outs that look alike come from different tables or passages of the source.

How the values were obtained:
[1] = system: YAP-TEAD transcription complex; experiment: YAP-TEAD reporter gene assay (dual luciferase, stably transfected 293T cells); assay type: cell-based; settings: Homo sapiens, HEK-293T
[2] = Pharmacokinetic test in mice (low dose); assay type: in vivo, Balb/c mice; settings: mouse, mice; for AUC(0-t): read-out: AUClast; for clearance: read-out: Cl (converted); for half-life: read-out: T1/2 (converted); for bioavailability: PO 10 mg/kg vs IV 2 mg/kg, read-out: F%; for Cmax: read-out: Cmax
[3] = system: H226 cells; experiment: Pharmacodynamic test, H226 subcutaneous xenograft; assay type: in vivo, nude mice (BALB/c nu/nu)
Experimental: Healthy female nude mice (BALB/c nu/nu) aged 6-8 weeks were housed in an SPF environment in accordance with animal ethical guidelines. The well-growing 10^7 H226 cells were harvested through trypsin digestion, washed in phosphate-buffered saline (PBS), and then resuspended in PBS containing 50% matrigel (BD Biosciences).
Subcutaneous injection was then performed at the dorsolateral sites of the mice, and the tumor volume was measured once every three days thereafter. When the tumor volume reached around 150-200 mm^3, the mice were randomly assigned to different treatment groups. Any one of the compounds described herein was prepared accordingly and administered at an appropriate dose. Finally, the tumor growth in the nude mice was analyzed after 4 to 6 weeks based on the growth of the tumors.

[4] = Saturated solubility in FaSSIF solution; assay type: physicochemical; settings: room temperature, stirred overnight
Experimental: Efficacy Experimental Example 9: Test of Saturated Solubility of Samples in FaSSIF Solution
About 0.21 g of sodium hydroxide, about 2.24 g of sodium dihydrogen phosphate dihydrate, and 3.09 g of sodium chloride were weighed out and dissolved in 500 mL of water, and after dissolution, the pH was adjusted to 6.5 with 1 N sodium hydroxide or 1 N hydrochloric acid.
112 mg of FaSSIF solid was weighed out and placed in a 50 mL volumetric flask, and the buffer described above was added for dissolution. The resulting solution was diluted to volume, mixed well, and left to stand at room temperature for 2 h or more.
Test sample: About 1 mg of the test sample was taken, and 1 mL of FaSSIF solution was added. The mixture was stirred at room temperature overnight and centrifuged, and the supernatant was collected and injected for analysis.
Reference sample solution: About 1.5 mg of the test sample was precisely weighed out and placed in a 50 mL volumetric flask, and DMF was added for dissolution. The resulting solution was diluted to volume and mixed well.
The peak of the main component of the reference sample and the peak of the test sample with the same retention time were integrated, and the concentration thereof in the FaSSIF solution was calculated according to the external standard method.

[5] = 293T reporter cells, 24 h of drug treatment, read-out: IC50

Row | SMILES | IC50 [1, 5] [nM] | MRT ([2]; plasma, IV 2 mg/kg) [h] | AUC(0-t) ([2]; plasma, IV 2 mg/kg) [µM·h] | clearance ([2]; plasma, IV 2 mg/kg) [mL/min/kg] | half-life ([2]; plasma, IV 2 mg/kg) [h] | MRT ([2]; plasma, PO 10 mg/kg) [h] | bioavailability ([2]; plasma) [%] | AUC(0-t) ([2]; plasma, PO 10 mg/kg) [µM·h] | Cmax ([2]; plasma, PO 10 mg/kg) [µM] | IC50 ([1]; 24 h) [nM] | MRT ([2]; in vivo, IV 2 mg/kg) [h] | AUC(0-t) ([2]; in vivo, IV 2 mg/kg) [µM·h] | clearance ([2]; in vivo, IV 2 mg/kg) [mL/min/kg] | half-life ([2]; in vivo, IV 2 mg/kg) [h] | MRT ([2]; in vivo, PO 10 mg/kg) [h] | bioavailability ([2]; in vivo) [%] | AUC(0-t) ([2]; in vivo, PO 10 mg/kg) [µM·h] | Cmax ([2]; in vivo, PO 10 mg/kg) [µM] | half-life ([2]; in vivo, PO 10 mg/kg) [h] | FaSSIF(pH = 6.5) [4] [ug/mL] | also measured
1 | CP(C)(=O)c1ccc(Nc2ccc(C(F)(F)F)cc2)c(-c2ncccn2)c1 [Example 12] | 92.1 | 23.4 | 58.8 | 1 | 17.2 | 34.5 | 100 | 295 | 16.1 |  |  |  |  |  |  |  |  |  |  |  | half-life ([2]; plasma, PO 10 mg/kg): 25.6 h; TGI ([3]; 50mpk QD): 50mpk QD TGI = 111.58%
2 | CP(C)(=O)c1ccc2c(Oc3ccc(C(F)(F)F)cc3)cccc2c1 [Example 7] |  |  |  |  |  |  |  |  |  | 4.09 | 171 | 50.7 | 0.25 | 120 | 211 | 106 | 267 | 12.7 | 146 | 1499.5 | TGI ([3]; 5mpk QD): 5mpk QD TGI = 111.84%
3 | CP(C)(=O)c1ccc(Nc2ccc(C(F)(F)F)cc2)c(-c2ccccn2)c1 [Example 10] | 100 | 75 | 59.3 | 0.4 | 52 | 75.6 | 98 | 290 | 14.6 |  |  |  |  |  |  |  |  |  |  | 89.75 | half-life ([2]; plasma, PO 10 mg/kg): 28.2 h; TGI ([3]; 25mpk QD): 25mpk QD TGI = 100.89%
4 | CP(C)(=O)c1cnc(Nc2ccc(C(F)(F)F)cc2)c(-c2cn3c(n2)CCC3)c1 [Example 22] |  |  |  |  |  |  |  |  |  | 13.6 | 10.8 | 16.4 | 4.17 | 8.9 | 9.9 | 114 | 96.4 | 7.07 | 7.6 | 337.6 | TGI ([3]; 10mpk QD): 10mpk QD TGI = 106.26%; TGI ([3]; 30mpk QD): 30mpk QD TGI = 113.45%
5 | Cc1ccc(Oc2ccc(C(F)(F)F)cc2)c2ccc(P(C)(C)=O)cc12 [Example 24] |  |  |  |  |  |  |  |  |  | 135 |  | 22.1 | 3.3 | 11 |  | 120 | 133 | 7.82 | 16.2 | 193.3 | 
6 | Cn1cnc(-c2cc(P(C)(C)=O)cnc2Nc2ccc(C(F)(F)F)cc2)c1 [Example 8] |  |  |  |  |  |  |  |  |  | 42.4 | 6.4 | 7.94 | 10 | 5.6 | 47.2 | 300 | 119 | 14.6 | 34.2 | 433.97 | TGI ([3]; 10mpk QD): 10mpk QD TGI = 115.60%
7 | CP(C)(=O)c1ccc2c(c1)c1cccnc1n2-c1ccc(C(F)(F)F)cc1 [Example 5] | 57.1 | 2.5 | 9.37 | 8.33 | 1.8 | 5.3 | 318 | 155 | 15.5 |  |  |  |  |  |  |  |  |  |  | 781.7 | half-life ([2]; plasma, PO 10 mg/kg): 2.6 h
8 | CP(C)(=O)c1ccc2c(c1)c1ccccc1n2-c1ccc(C(F)(F)F)cc1 [Example 1] |  |  |  |  |  |  |  |  |  | 39.7 | 6.1 | 30.7 | 2.83 | 4.2 | 6.5 | 118 | 182 | 12.9 | 3.9 | >950.5 | TGI ([3]; 50mpk QD): 50mpk QD TGI = 108.39%; TGI ([3]; 100mpk QD): 100mpk QD TGI = 113.05%
9 | Cn1cnc(-c2cc(P(C)(C)=O)ccc2Nc2ccc(C(F)(F)F)cc2)c1 [Example 14] |  |  |  |  |  |  |  |  |  | 20.2 | 26.2 | 21.2 | 2.33 | 19 | 17.8 | 106 | 112 | 8.08 | 12.3 | 674.6 | TGI ([3]; 10mpk QD): 10mpk QD TGI = 100.38%
